# Test results taken from US20020042121A1, “METHOD FOR MEASURING THE ASSOCIATION OF SUBSTRUCTURES OF PATHOLOGICAL PROTEIN DEPOSITIONS” (priority 1997, published 2002).
# Biological target: T1, synthetic Aβ1-42 aggregates (Homo sapiens, UniProt P05067)
# T1 construct: synthetic Aβ1-42 aggregates
# Assay: FCS measurement of association of the probe Aβ1-42-Cy2 to Aβ1-42 aggregates in the presence of a suspected active substance (screening model)
# Format: biochemical
# Text: A screening method for detecting active substances for the treatment of diseases associated with pathological protein depositions, which is analogous with the method according to the invention, is based on the fact that the association of substructures of the pathological protein depositions, structures forming pathological protein depositions, structures corresponding to pathological protein depositions and/or pathological protein depositions to substructures of the pathological protein depositions, structures forming pathological protein depositions, structures corresponding to pathological protein depositions as targets is measured in the presence of suspected active substances. As an alternative, association of substructures of pathological protein depositions, structures forming pathological protein depositions, structures corresponding to pathological protein depositions and/or pathological protein depositions to substructures of the pathological protein depositions, structures forming pathological protein depositions, structures corresponding to pathological protein depositions as targets is first performed, and then the reversal of the association under the action of suspected active substances is observed. Then, those compounds are identified as active substances which are capable of causing a reversal of the association in a significant way. […]
# T1 sequence (P05067 672-713 limits assumed): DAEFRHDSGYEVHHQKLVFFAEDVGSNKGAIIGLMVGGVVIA
smiles,measurement,setting,value
Nc1c(/N=N/c2ccc(-c3ccc(/N=N/c4cc(S(=O)(=O)O)c5ccccc5c4N)cc3)cc2)cc(S(=O)(=O)O)c2ccccc12 [Congo red],detectable peaks as compared to the control batch,"1 mM Congo red, FCS, 20 measurements each with one minute of measuring time, FIG. 13 bottom vs top",significant decrease of the detectable peaks
same,activity at 1000 µM,read-out: decrease of the signal intensity of the homologous association to,20%
